For test [1], the target named is T1, Vascular endothelial growth factor A, long form (Homo sapiens, UniProt P15692).
T1 sequence (P15692 whole entry): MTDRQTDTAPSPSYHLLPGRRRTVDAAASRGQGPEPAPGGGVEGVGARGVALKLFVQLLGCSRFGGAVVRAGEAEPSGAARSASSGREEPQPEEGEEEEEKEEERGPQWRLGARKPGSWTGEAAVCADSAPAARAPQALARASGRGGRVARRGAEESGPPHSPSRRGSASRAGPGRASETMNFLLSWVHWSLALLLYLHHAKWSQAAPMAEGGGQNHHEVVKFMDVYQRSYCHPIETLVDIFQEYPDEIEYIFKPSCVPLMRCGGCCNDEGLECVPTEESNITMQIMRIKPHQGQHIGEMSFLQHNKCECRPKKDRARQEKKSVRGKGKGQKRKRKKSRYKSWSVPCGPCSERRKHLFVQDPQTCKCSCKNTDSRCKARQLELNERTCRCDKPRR
Kind of test: Binding affinity to human VEGF (13 to 107 residues) expressed in Escherichia coli Rosetta (DE3) cells assessed as dissociation constant at 20 degreeC by isothermal titration calorimetry analysis.

Test [2] concerns the target T2, Vascular endothelial growth factor A, long form (Homo sapiens) (UniProt P15692).
T2 sequence (whole entry): T1 sequence (P15692 whole entry)
Kind of test: Binding affinity to human VEGF (13 to 107 residues) expressed in Escherichia coli Rosetta (DE3) cells assessed as Gibbs free energy change at 20 degreeC by isothermal titration calorimetry analysis. Background: ITC needs no label: the signal is the heat of the interaction.

Test [3] has as its target T2, Vascular endothelial growth factor A, long form (Homo sapiens). Kind of test: Binding affinity to human VEGF (13 to 107 residues) expressed in Escherichia coli Rosetta (DE3) cells assessed as change in enthalpy at 20 degreeC by isothermal titration calorimetry analysis.
Test [4] shares this target. Description: Binding affinity to human VEGF (13 to 107 residues) expressed in Escherichia coli Rosetta (DE3) cells assessed as change in entropy at 20 degreeC by isothermal titration calorimetry analysis.
For test [5] the target is unchanged. Description: Binding affinity to human VEGF (13 to 107 residues) expressed in Escherichia coli Rosetta (DE3) cells assessed as change in heat capacity at 20 degreeC by isothermal titration calorimetry analysis.
Test [6] concerns the target T1, Vascular endothelial growth factor A, long form. Kind of test: Binding affinity to human VEGF (13 to 107 residues) expressed in Escherichia coli Rosetta (DE3) cells assessed as dissociation constant at 37 degreeC by isothermal titration calorimetry analysis.
Test [7] concerns the target T2, Vascular endothelial growth factor A, long form (Homo sapiens). Kind of test: Binding affinity to human VEGF (13 to 107 residues) expressed in Escherichia coli Rosetta (DE3) cells assessed as Gibbs free energy change at 37 degreeC by isothermal titration calorimetry analysis.
The target is the same in test [8]. Description: Binding affinity to human VEGF (13 to 107 residues) expressed in Escherichia coli Rosetta (DE3) cells assessed as change in enthalpy at 37 degreeC by isothermal titration calorimetry analysis.
The target is the same in test [9]. Kind of test: Binding affinity to human VEGF (13 to 107 residues) expressed in Escherichia coli Rosetta (DE3) cells assessed as change in entropy at 37 degreeC by isothermal titration calorimetry analysis.

Starred links: 1 amine or outer side, 2 acyl side, 3 side chain; linkers in the order of their positions; H or OH if unused. Positions of bridges follow the written chain, without caps; N, C: chain ends. Residues, ends and D or L forms follow the SMILES beside them. Chains are numbered I, II in the order given. CO(CH2)2(OCH2CH2)17CO = O=C(CCOCCOCCOCCOCCOCCOCCOCCOCCOCCOCCOCCOCCOCCOCCOCCOCCOCCC(=O)[*:2])[*:1]; X3 = O=C(CCOCCOCCOCCOCCOCCOCCOCCOCCOCCOCCOCCOCCOCCOCCOCCOCCOCCOCCOCCOCCOCCC(=O)[*:2])[*:1]; CO(CH2CH2O)13CH2CH2CO = O=C(CCOCCOCCOCCOCCOCCOCCOCCOCCOCCOCCOCCOCCOCCC(=O)[*:2])[*:1]; CO(CH2CH2O)9CH2CH2CO = O=C(CCOCCOCCOCCOCCOCCOCCOCCOCCOCCC(=O)[*:2])[*:1]

By Kd is commonly meant the concentration at which binding is half-saturated. On to `CC[C@H](C)[C@@H]1NC(=O)[C@H](CC(=O)O)NC(=O)[C@@H](NC(C)=O)CSSC[C@@H]2NC(=O)[C@H](CCCCNC(=O)C[C@@H](C(=O)N[C@@H](CC(C)C)C(N)=O)NC(=O)[C@H](CCC(=O)O)NC(=O)[C@H](Cc3ccccc3)NC2=O)NC(=O)[C@H](Cc2c[nH]c3ccccc23)NC(=O)[C@H](CCC(=O)O)NC(=O)[C@H](Cc2c[nH]c3ccccc23)NC(=O)[C@H](CCCCNC(=O)CCOCCOCCOCCOCCOCCOCCOCCOCCOCCOCCOCCOCCOCCOCCOCCOCCOCCC(=O)NCCCC[C@@H]2NC(=O)[C@H](C(C)C)NC(=O)[C@H](Cc3cnc[nH]3)NC(=O)[C@H]([C@@H](C)CC)NC(=O)[C@H](CC(=O)O)NC(=O)[C@@H](NC(C)=O)CSSC[C@@H]3NC(=O)[C@H](CCCCNC(=O)C[C@@H](C(=O)N[C@@H](CC(C)C)C(N)=O)NC(=O)[C@H](CCC(=O)O)NC(=O)[C@H](Cc4ccccc4)NC3=O)NC(=O)[C@H](Cc3c[nH]c4ccccc34)NC(=O)[C@H](CCC(=O)O)NC(=O)[C@H](Cc3c[nH]c4ccccc34)NC2=O)NC(=O)[C@H](C(C)C)NC(=O)[C@H](Cc2cnc[nH]2)NC1=O` (I: Ac-CDIHVKWEWKCFEDL-NH2 / II: Ac-CDIHVKWEWKCFEDL-NH2; disulfide I:1-I:11, II:1-II:11; linker I:6-II:6 via CO(CH2)2(OCH2CH2)17CO; lactam I:10-I:14, II:10-II:14), for which the Kd is 22 nM in [1] and 51 nM in test [6]. Besides, the deltaG in [2] is -10.3 kcal/mol; in test [7] it was -10.4 kcal/mol. Also, the deltaH in test [3] is -38.1 kcal/mol; in [8] it was -48.3 kcal/mol. In addition, the -TdeltaS in test [4] came out at 27.9 kcal/mol; in [9] it was 37.9 kcal/mol. Also, the DeltaCp in test [5] was -0.6 kcal/mol/K.
Turning to `CC[C@H](C)[C@@H]1NC(=O)[C@H](CC(=O)O)NC(=O)[C@@H](NC(C)=O)CSSC[C@@H]2NC(=O)[C@H](CCCCNC(=O)C[C@@H](C(=O)N[C@@H](CC(C)C)C(N)=O)NC(=O)[C@H](CCC(=O)O)NC(=O)[C@H](Cc3ccccc3)NC2=O)NC(=O)[C@H](Cc2c[nH]c3ccccc23)NC(=O)[C@H](CCC(=O)O)NC(=O)[C@H](Cc2c[nH]c3ccccc23)NC(=O)[C@H](CCCCN)NC(=O)[C@H](C(C)C)NC(=O)[C@H](Cc2cnc[nH]2)NC1=O` (Ac-CDIHVKWEWKCFEDL-NH2; disulfide 1-11; lactam 10-14), the Kd is 129 nM in test [1] and 573 nM in [6].
In the case of `CC[C@H](C)[C@@H]1NC(=O)[C@H](CC(=O)O)NC(=O)[C@@H](NC(C)=O)CSSC[C@@H]2NC(=O)[C@H](CCCCNC(=O)C[C@@H](C(=O)N[C@@H](CC(C)C)C(N)=O)NC(=O)[C@H](CCC(=O)O)NC(=O)[C@H](Cc3ccccc3)NC2=O)NC(=O)[C@H](Cc2c[nH]c3ccccc23)NC(=O)[C@H](CCC(=O)O)NC(=O)[C@H](Cc2c[nH]c3ccccc23)NC(=O)[C@H](CCCCNC(=O)CCOCCOCCOCCOCCOCCOCCOCCOCCOCCC(=O)NCCCC[C@@H]2NC(=O)[C@H](C(C)C)NC(=O)[C@H](Cc3cnc[nH]3)NC(=O)[C@H]([C@@H](C)CC)NC(=O)[C@H](CC(=O)O)NC(=O)[C@@H](NC(C)=O)CSSC[C@@H]3NC(=O)[C@H](CCCCNC(=O)C[C@@H](C(=O)N[C@@H](CC(C)C)C(N)=O)NC(=O)[C@H](CCC(=O)O)NC(=O)[C@H](Cc4ccccc4)NC3=O)NC(=O)[C@H](Cc3c[nH]c4ccccc34)NC(=O)[C@H](CCC(=O)O)NC(=O)[C@H](Cc3c[nH]c4ccccc34)NC2=O)NC(=O)[C@H](C(C)C)NC(=O)[C@H](Cc2cnc[nH]2)NC1=O` (I: Ac-CDIHVKWEWKCFEDL-NH2 / II: Ac-CDIHVKWEWKCFEDL-NH2; disulfide I:1-I:11, II:1-II:11; linker I:6-II:6 via CO(CH2CH2O)9CH2CH2CO; lactam I:10-I:14, II:10-II:14), the figures for the Kd in test [1] and in [6] were 26 nM and 90 nM, respectively. Besides, the deltaG was -10.2 kcal/mol in test [2] and -10 kcal/mol in [7]. The deltaH is -32.8 kcal/mol in [3] and -42.1 kcal/mol in test [8]. Further, the -TdeltaS in test [4] was 22.6 kcal/mol; in [9] it was 32.1 kcal/mol. Moreover, in [5], the DeltaCp was -0.55 kcal/mol/K.
With `COc1ccc([C@H]2CNC(=O)C2)cc1OC1CCCC1` [S-ROLIPRAM], in test [2], the deltaG is -12.3 kcal/mol. For the same compound, in [3], the deltaH is -29.3 kcal/mol. Moreover, the -TdeltaS in [4] amounted to 17 kcal/mol.
As for `CC[C@H](C)[C@@H]1NC(=O)[C@H](CC(=O)O)NC(=O)[C@@H](NC(C)=O)CSSC[C@@H]2NC(=O)[C@H](CCCCNC(=O)C[C@@H](C(=O)N[C@@H](CC(C)C)C(N)=O)NC(=O)[C@H](CCC(=O)O)NC(=O)[C@H](Cc3ccccc3)NC2=O)NC(=O)[C@H](Cc2c[nH]c3ccccc23)NC(=O)[C@H](CCC(=O)O)NC(=O)[C@H](Cc2c[nH]c3ccccc23)NC(=O)[C@H](CCCCNC(=O)CCOCCOCCOCCOCCOCCOCCOCCOCCOCCOCCOCCOCCOCCOCCOCCOCCOCCOCCOCCOCCOCCC(=O)NCCCC[C@@H]2NC(=O)[C@H](C(C)C)NC(=O)[C@H](Cc3cnc[nH]3)NC(=O)[C@H]([C@@H](C)CC)NC(=O)[C@H](CC(=O)O)NC(=O)[C@@H](NC(C)=O)CSSC[C@@H]3NC(=O)[C@H](CCCCNC(=O)C[C@@H](C(=O)N[C@@H](CC(C)C)C(N)=O)NC(=O)[C@H](CCC(=O)O)NC(=O)[C@H](Cc4ccccc4)NC3=O)NC(=O)[C@H](Cc3c[nH]c4ccccc34)NC(=O)[C@H](CCC(=O)O)NC(=O)[C@H](Cc3c[nH]c4ccccc34)NC2=O)NC(=O)[C@H](C(C)C)NC(=O)[C@H](Cc2cnc[nH]2)NC1=O` (I: Ac-CDIHVKWEWKCFEDL-NH2 / II: Ac-CDIHVKWEWKCFEDL-NH2; disulfide I:1-I:11, II:1-II:11; linker I:6-II:6 via X3; lactam I:10-I:14, II:10-II:14), the figures for the Kd in [1] and in [6] were 15 nM and 37 nM, respectively. Besides, the deltaG in test [2] and in test [7] was -10.5 kcal/mol throughout. For the same compound, the deltaH in test [3] was -36.6 kcal/mol; in test [8] it was -51.3 kcal/mol. Besides, the -TdeltaS in test [4] was found to be 26.1 kcal/mol; in test [9], 40.7 kcal/mol. Also, the DeltaCp in test [5] was -0.86 kcal/mol/K.
Take `CC[C@H](C)[C@@H]1NC(=O)[C@H](CC(=O)O)NC(=O)[C@@H](NC(C)=O)CSSC[C@@H]2NC(=O)[C@H](CCCCNC(=O)C[C@@H](C(=O)N[C@@H](CC(C)C)C(N)=O)NC(=O)[C@H](CCC(=O)O)NC(=O)[C@H](Cc3ccccc3)NC2=O)NC(=O)[C@H](Cc2c[nH]c3ccccc23)NC(=O)[C@H](CCC(=O)O)NC(=O)[C@H](Cc2c[nH]c3ccccc23)NC(=O)[C@H](CCCCNC(=O)CCOCCOCCOCCOCCOCCOCCOCCOCCOCCOCCOCCOCCOCCC(=O)NCCCC[C@@H]2NC(=O)[C@H](C(C)C)NC(=O)[C@H](Cc3cnc[nH]3)NC(=O)[C@H]([C@@H](C)CC)NC(=O)[C@H](CC(=O)O)NC(=O)[C@@H](NC(C)=O)CSSC[C@@H]3NC(=O)[C@H](CCCCNC(=O)C[C@@H](C(=O)N[C@@H](CC(C)C)C(N)=O)NC(=O)[C@H](CCC(=O)O)NC(=O)[C@H](Cc4ccccc4)NC3=O)NC(=O)[C@H](Cc3c[nH]c4ccccc34)NC(=O)[C@H](CCC(=O)O)NC(=O)[C@H](Cc3c[nH]c4ccccc34)NC2=O)NC(=O)[C@H](C(C)C)NC(=O)[C@H](Cc2cnc[nH]2)NC1=O` (I: Ac-CDIHVKWEWKCFEDL-NH2 / II: Ac-CDIHVKWEWKCFEDL-NH2; disulfide I:1-I:11, II:1-II:11; linker I:6-II:6 via CO(CH2CH2O)13CH2CH2CO; lactam I:10-I:14, II:10-II:14): the Kd in test [1] was 20 nM; in test [6], 56 nM. For the same compound, the deltaG in [2] and in [7] was -10.3 kcal/mol in each case. Further, the deltaH in test [3] is -36.3 kcal/mol; in test [8] it was -46 kcal/mol. The -TdeltaS in test [4] came out at 26 kcal/mol; in test [9] it was 35.7 kcal/mol. The DeltaCp in [5] is -0.57 kcal/mol/K.

Source of the values: ChEMBL document CHEMBL5346952, “Dimer Peptide Ligands of Vascular Endothelial Growth Factor: Optimizing Linker Length for High Affinity and Antiangiogenic Activity” (J Med Chem, 2023).
